# “And” between values parts separate entries of the source, which are not always exact repeats. Equal entries are not always repeated. “Also recorded” adds a separate entry of the source.
# Experiments:
# [1] = tested on: women presenting 0-120 hours after unprotected intercourse; experiment: Prospective multicenter, single-blind randomized study of ulipristal acetate versus levonorgestrel as emergency contraception 0-120 hours after unprotected intercourse (Example 2); assay type: in vivo
# Protocol: This was a prospective, single-blind (subject and sponsor blind, investigator not blind), randomized, multicenter, 2-arm parallel comparative study designed to evaluate the efficacy of a single dose of ulipristal acetate (30 mg tablets) compared to levonorgestrel (1.5 mg) administered for EC within 120 hours after unprotected intercourse. It was performed in 10 centers in Europe and 25 centers in the US. Women ([…]), with regular menstrual cycles (between 24 and 35 days and intra-individual variations less than or equal to 5 days), who presented for EC within 120 hours after unprotected intercourse at a participating study site and who met the inclusion/exclusion criteria were enrolled into the study after they signed informed consent form. Subjects were excluded from the study in case of ongoing pregnancy or breast-feeding or current use of hormonal contraception or IUD. The study medication (ulipristal acetate 30 mg or levonorgestrel 1.5 mg) was administered according to a random allocation procedure generated electronically. Treatment was administered orally immediately after all eligibility criteria (including negative urine pregnancy test) had been verified. At follow-up visit (5-7 days after expected onset of menses) a high-sensitivity urine pregnancy test was systematically performed. If the urine pregnancy was positive, this was confirmed by a serum β-hCG test. The pre-treatment serum specimen was also assayed for β-hCG to verify whether the pregnancy pre-dated intake of the study drug. Confirmed pregnancies were further evaluated by scrum quantitative hCG(s) and transvaginal ultrasound(s) to determine the estimated fertilization date. Based on previous similar clinical trials, pregnancy rates in the ulipristal acetate and levonorgestrel group were expected to be 1% and 1.7% respectively. […] For this comparison, the non-inferiority margin was set to 1.6 in odds ratio (a non-inferiority margin of 1.6 in odds ratio is equivalent to a non-inferiority margin of 1% in percent point with an assumed pregnancy rate with levonorgestrel of 1.7%) with a type I error rate of 5% (two-sided) and 85% power. In order to compensate for an anticipated lost to follow-up rate of 10%, 910 patients per group had to be included in the 0-72 hour time interval. Furthermore, recruitment of patients requesting emergency contraception between 72 h and 120 h was estimated to represent 1 out of 10 patients. Therefore, taking into account recruitment in the 72-120 h interval, 1022 patients per group were to be randomized for a total of 2044 patients. […] In order to ensure unbiased evaluation of pregnancy data, an independent, autonomous DSMB composed of two experts in the field of gynecology, one methodologist and one expert in ethical questions was established to review incidence of pregnancy with respect to unacceptability threshold and give recommendations during the course of the clinical trial. In addition, the DSMB assessed whether each pregnancy was “compatible” or “not compatible” with treatment failure based on available data.
# [2] = tested on: women presenting 48-120 hours after unprotected intercourse; experiment: Prospective multicenter, open label study of ulipristal acetate as emergency contraception 48-120 hours after unprotected intercourse (Example 1); assay type: in vivo; settings: for Observed Pregnancy Rate (%): single 30 mg dose
# Protocol: Women 18 and older who presented for emergency contraception at family planning clinics located in the United States, 48-120 hours after UPI and who met the inclusion/exclusion criteria were enrolled into the study after signing the IRB approved informed consent. The inclusion criteria were regular menstrual cycles 24-35 (+/−5) days in length, no current use of hormonal contraception, willingness not to use hormonal contraception until study completion, and agreement to use barrier methods of contraception from enrollment to study completion. Exclusion criteria included pregnancy, breastfeeding, IUD, tubal ligation or partner vasectomy, and uncertainty about recent menstrual history.
# A total of up to three visits were scheduled over the course of the study. The first visit, considered Day 1, included the screening and treatment phases. A high sensitivity urine pregnancy test (level of detection 20 mIU/ml) was performed and a blood sample was taken and stored for later serum quantitative β-hCG testing to exclude pre-existing pregnancy if a pregnancy was detected during the study.
# Women were provided daily diaries in which to record further acts of intercourse, contraception used, vaginal spotting or bleeding, concomitant medication and adverse events during study duration.
# At follow-up visit (5-7 days after expected onset of menses) a high-sensitivity urine pregnancy test was systematically performed. If the urine pregnancy was positive, this was confirmed by a serum β-hCG test. The pre-treatment serum specimen was also assayed for β-hCG to verify whether the pregnancy pre-dated intake of the study drug. Confirmed pregnancies were further evaluated by scrum quantitative hCG(s) and transvaginal ultrasound(s) to determine the estimated fertilization date.
# Women could enroll in the study more than once but they must have completed prior study participation before re-enrolling.
# The primary efficacy measurement was the pregnancy rate, defined as the number of pregnancies after administration of ulipristal acetate for EC divided by the number of women treated. The primary efficacy analysis compared this pregnancy rate to the pregnancy rate that would have been expected in the absence of EC treatment, which was calculated according to Trussell's method (Trussell et al, 1998) using the pooled recognizable set of conception probabilities and the estimated cycle day of UPI based on self-reported date of last menstrual period, cycle length and date of UPI.
# The main secondary efficacy analysis compared the upper bound of the 95% confidence interval of the observed pregnancy rate to a clinical irrelevance threshold of 4%. This threshold corresponds to a reduction by half of the expected 8% pregnancy rate in the absence of contraception as observed in previous international studies (Von Hertzen et al, 1998; Piaggio, 1999; Von Hertzen et al, 2002). The study was to be considered a success only if both the primary efficacy and the main secondary analyses were conclusive. Other secondary analyses included calculation of the prevented fraction, defined as the number of pregnancies prevented (expected minus observed) divided by the number of pregnancies expected, and analysis of trend in pregnancy rates over time (by 24-hour interval) using a logistic regression model.
# The population analyzed for primary efficacy excluded women who were lost to follow-up and women ages 36 and older due to reduced fertility in this age category based upon FDA guidance. Further participations in the study allowed by protocol were also excluded from primary efficacy evaluation, as well as pregnancies that were determined as not compatible with study drug failure by a Data Safety Monitoring Board (DSMB) consisting of independent experts.
# Study enrolment was stopped once 1200 subjects meeting the criteria for the primary efficacy analysis had completed the study.
# [3] = tested on: women treated with ulipristal acetate in the two trials; experiment: Pooled efficacy analysis of Example 1 and Example 2 (Example 3); assay type: in vivo; settings: mITT pooled population
# Source text: When the efficacy data of women treated with ulipristal acetate in the two trials (Example 1 and Example 2) are grouped in a pooled analysis, further evidence of the efficacy of the method is provided.
# [4] = used within 72 hours of UPI; cited from earlier work
# [5] = 0-72 h mITT, ulipristal acetate 30 mg or levonorgestrel 1.5 mg single oral dose
# [6] = >24 to <=48 hours relative to the previous 24 hrs time interval, mITT
# [7] = >48 to <=72 hours relative to the previous 24 hrs time interval, mITT
# [8] = >72 to <=96 hours relative to the previous 24 hrs time interval, mITT
# [9] = mITT, unprotected intercourse within 72 hours of EC intake (p=0.253)
# [10] = mITT, unprotected intercourse within 120 hours of EC intake (p=0.127)
# [11] = 48-72 h after UPI, mITT population
# [12] = >72-96 h after UPI, mITT population
# [13] = >96-120 h after UPI, mITT population
compound,measurement,setting,value
C#C[C@]1(O)CC[C@H]2[C@@H]3CCC4=CC(=O)CC[C@@H]4[C@H]3CC[C@@]21CC [levonorgestrel],Pregnancy Rate n,[1]; 0-72 h mITT (n = 1694),22
same,Pregnancy Rate (%),[1]; [5],2.59%
same,Pregnancy Rate (%),"[1]; 0-72 h mITT, ulipristal acetate 30 mg or levonorgestrel 1.5 mg single oral dose, listed as Levonorgestrel",2.6%
same,Pregnancy Rate (%),[1]; 0-120 h mITT,2.6%
same,Pregnancy Rate n,[1]; 0-120 h mITT (n = 1899),25
same,Pregnancy Rate (%),[1]; 72-120 h mITT,2.8%
same,Pregnancy Rate n,[1]; 72-120 h mITT (n = 203),3
same,Odds ratio,[1]; [6],0.73
same,Odds ratio,[1]; [7],1.17
same,Odds ratio,[1]; [8],1.08
same,Odds ratio,"[1]; >96 to <=120 hours relative to the previous 24 hrs time interval, mITT",1.11
same,prevented expected pregnancies,[1]; [9],52.2%
same,prevented expected pregnancies,[1]; [10],52.8%
"CC(=O)O[C@]1(C(C)=O)CC[C@H]2[C@@H]3CCC4=CC(=O)CCC4=C3[C@@H](c3ccc(N(C)C)cc3)C[C@@]21C [ulipristal acetate, 17α-acetoxy-11β-[4-N,N-dimethylamino-phenyl)-19-norpregna-4,9-diene-3,20-dione]",Effectiveness (Prevented Fraction),[2]; [11],61.9%
same,Observed Pregnancy Rate (%),[2]; [11],2.3%
same,Effectiveness (Prevented Fraction),[2]; [12],57.9%
same,Observed Pregnancy Rate (%),[2]; [12],2.1%
same,Effectiveness (Prevented Fraction),[2]; [13],75.0%
same,Observed Pregnancy Rate (%),[2]; [13],1.3%
same,Observed Pregnancy Rate (%),"[2]; All (48-120 h after UPI), mITT / Primary Efficacy Population",2.1%
same,Effectiveness (Prevented Fraction),"[2]; All (48-120 h after UPI), mITT population, expected pregnancies by Trussell's method",62.3%
same,observed pregnancy rate,"[2]; Safety Population of 1533 women, 48-120 h after UPI",1.9%
same,pregnancies detected at follow-up,"[2]; all women enrolled, before DSMB exclusion of 3 pregnancies",29
same,linear trend of pregnancy rates over time (logistic regression model),"[2]; by 24-hour interval, 48-120 h after UPI, p=0.2490",no evidence of change in efficacy over time
same,Pregnancy Rate n,[1]; 0-72 h mITT (n = 1694),15
same,Pregnancy Rate (%),[1]; [5],1.78%
same,Pregnancy Rate (%),"[1]; 0-72 h mITT, ulipristal acetate 30 mg or levonorgestrel 1.5 mg single oral dose, listed as Ulipristal acetate",1.8%
same,Pregnancy Rate (%),[1]; 0-120 h mITT,1.60%
same,Pregnancy Rate n,[1]; 0-120 h mITT (n = 1899),15
same,Pregnancy Rate (%),"[1]; 0-120 h mITT, listed as Ulipristal acetate",1.6%
same,Pregnancy Rate (%),[1]; 72-120 h mITT,0.0%
same,Pregnancy Rate n,[1]; 72-120 h mITT (n = 203),no pregnancy was observed
same,Pregnancy Rate n,"[1]; 72-120 h mITT (n = 203), listed as Ulipristal acetate",0
same,Pregnancy Rate (%),"[1]; >0 to <=24 hours from unprotected intercourse to treatment, mITT",1.6%
same,Pregnancy Rate (%),"[1]; >24 to <=48 hours from unprotected intercourse to treatment, mITT",2.13% and 2.1%
same,Odds ratio,[1]; [6],1.33
same,Pregnancy Rate (%),"[1]; >48 to <=72 hours from unprotected intercourse to treatment, mITT",1.48% and 1.5%
same,Odds ratio,[1]; [7],0.69
same,Odds ratio,[1]; [8],0.00
same,prevented expected pregnancies,[1]; [9],68.1%
same,prevented expected pregnancies,[1]; [10],72.2%
same,"pregnancies prevented compared to the expected pregnancy rate, ulipristal acetate versus levonorgestrel","[1]; p<0.05 one-sided randomization test within 120 hours, p<0.05 two-sided between 72 and 120 hours, mITT",significantly more pregnancies were prevented with ulipristal acetate than levonorgestrel
same,Overall observed pregnancy rate (%) (pooled),[3]; 0-24 h,1.60%
same,Overall observed pregnancy rate (%) (pooled),[3]; >24-48 h,2.07%
same,Overall observed pregnancy rate (%) (pooled),[3]; >48-72 h,2.16%
same,Overall observed pregnancy rate (%) (pooled),[3]; >72-96 h,1.76%
same,Overall observed pregnancy rate (%) (pooled),[3]; >96-120 h,1.04%
same,efficacy for preventing pregnancy compared with levonorgestrel,[4],as effective as levonorgestrel; also recorded: as efficacious as levonorgestrel
